Data published in US8574893B2, “Nucleic acid cleavage complex and method for using the same” (National Cheng Kung University, priority 2010, dated 2013).

Test system: pST3 test vector
Assay: DNA cleavage test of the nucleic acid cleavage reagent in vitro
Format: biochemical
Description: First, the pST3 test vector of Test Example 1 is prepared. The abovementioned vector and the nucleic acid cleavage reagent (Cypate) are mixed in a molar ratio of 1:1000. […] Columns 5 and 6 of FIG. 5 show the position of the nucleic acid cleavage reagent (Cypate) in the gel.

CC1(C)C(/C=C/C=C/C=C/C=C2/N(CCC(=O)O)c3ccc4ccccc4c3C2(C)C)=[N+](CCC(=O)[O-])c2ccc3ccccc3c21 [Cypate, cypate]
cleavage of the plasmid to nicked open-circular plasmid (Form II plasmid) (vector:Cypate molar ratio 1:1000, irradiation for 5 mins, FIG. 5 column 8): partially cleaved
cleavage of the plasmid to nicked open-circular plasmid (Form II plasmid) (vector:Cypate molar ratio 1:1000, irradiation for 10 mins, FIG. 5 column 10): completely cleaved
